Patent US9957264B2 (Merck Sharp & Dohme Corp., priority 2013, dated 2018)

Target: JAK1 (recombinant purified GST-tagged catalytic domain) (Homo sapiens (Human), UniProt P23458)
Assay: Jak Biochemical HTRF Assay (JAK1)
Conditions: [ATP] 31.8 μM
Procedure: Jak Biochemical HTRF Assay Protocol
The ability of compounds to inhibit the activity of JAK1, JAK2, JAK3, and Tyk2 was measured using a recombinant purified GST-tagged catalytic domain for each enzyme (Invitrogen JAK1 #M4290, JAK2 #M4290, JAK3 #M4290, Tyk2 #M4290) in an HTRF format biochemical assay. The reactions employed a common peptide substrate, LCB-[…]-NH2 (in-house). The basic assay protocol is as follows: First, 250 nL of diluted compounds in DMSO were dispensed into the wells of a dry 384-well Black plate (Greiner #781076) using a Labcyte Echo 555 acoustic dispenser. Subsequent reagent additions employed an Agilent Bravo. […] After equilibration, 2 μL of 10×ATP in 1× assay buffer was added to initiate the kinase reaction and the plates were shaken and then incubated at room temperature for 120 minutes. At the end of the incubation, 20 μL of 2× stop buffer (streptavidin-Dylight 650 (Thermo #84547B/100 mL), Eu-tagged pY20 antibody (Perkin Elmer #AD0067), EDTA, HEPES, and Triton) was added to quench the reaction. Plates were shaken and centrifuged and then incubated 60 minutes at room temperature and then read on a Perkin Elmer Envision (λex=337 nm, λem=665 and 615 nm, TRF delay time=20 μs). HTRF signal=10,000*665 nm reading/615 nm reading. After normalization to untreated controls, the percent inhibition of the HTRF signal at each compound concentration was calculated. The plot of percent inhibition versus the log of compound concentration was fit with a 4-parameter dose response equation to calculate IC50 values.
Final reaction conditions were:
Examples of the instant invention were evaluated in JAK1 and JAK2 in vitro binding assays as described above. The following table tabulates the JAK1 IC50 values and JAK2 IC50 values disclosed for the instant invention.

Sequence of JAK1 (recombinant purified GST-tagged catalytic domain) (P23458 875-1153): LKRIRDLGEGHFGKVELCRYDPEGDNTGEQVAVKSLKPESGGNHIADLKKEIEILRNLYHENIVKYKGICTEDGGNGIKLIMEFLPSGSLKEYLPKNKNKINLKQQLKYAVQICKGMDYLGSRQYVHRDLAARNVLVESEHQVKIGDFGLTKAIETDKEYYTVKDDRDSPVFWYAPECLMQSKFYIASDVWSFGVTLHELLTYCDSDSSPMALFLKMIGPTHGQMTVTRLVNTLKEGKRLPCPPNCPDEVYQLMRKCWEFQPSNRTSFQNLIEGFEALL

Row | Structure (SMILES) | IC50
1 | Cc1ccc(CN2CCC(CC#N)(n3nc(Nc4ccc(S(=O)(=O)N(C)C)cc4)c4c(=O)[nH]ccc43)CC2)cc1 [Example 8-2, 4-({1-[4-(cyanomethyl)-1-(4-methylbenzyl)piperidin-4-yl]-4-oxo-4,5-dihydro-1H-pyrazolo[4,3-c]pyridin-3-yl}amino)-N,N-dimethylbenzenesulfonamide] | 0.44 nM
2 | CN(C)S(=O)(=O)c1ccc(Nc2nn([C@]3(CC#N)CC[C@@H](N4CC(F)C4)CC3)c3cc[nH]c(=O)c23)cc1 [Example 18-29, Trans 4-((1-(1-(cyanomethyl)-4-(3-fluoroazetidin-1-yl)cyclohexyl)-4-oxo-4,5-dihydro-1H-pyrazolo[4,3-c]pyridin-3-yl)amino)-N,N-dimethylbenzenesulfonamide] | 0.1 nM
3 | CC(C)(C)N1Cc2cc(Nc3nn(C4(CC#N)CCCC4)c4cc[nH]c(=O)c34)ccc2S1(=O)=O [Example 5-121, 2-(1-(3-((2-(tert-butyl)-1,1-dioxido-2,3-dihydrobenzo[d]isothiazol-5-yl)amino)-4-oxo-4,5-dihydro-1H-pyrazolo[4,3-c]pyridin-1-yl)cyclopentyl)acetonitrile] | 0.04 nM
4 | CC(OC(=O)N1CCC(CC#N)(n2nc(Nc3ccc(S(=O)(=O)N(C)C)cc3)c3c(=O)[nH]ccc32)CC1)C(F)(F)F (stereo not drawn) [Example 11-8, 1,1,1-trifluoropropan-2-yl 4-(cyanomethyl)-4-(3-((4-(N,N-dimethylsulfamoyl)phenyl)amino)-4-oxo-4,5-dihydro-1H-pyrazolo[4,3-c]pyridin-1-yl)piperidine-1-carboxylate] | 0.18 nM
5 | CN(C)S(=O)(=O)c1ccc(Nc2nn([C@@]3(CC#N)CCCC[C@H]3F)c3cc[nH]c(=O)c23)cc1 [Example 5-84] | < 0.02 nM
6 | CC(C)(C)N1Cc2cc(Nc3nn([C@]4(CC#N)CCOC[C@@H]4F)c4cc[nH]c(=O)c34)ccc2C1=O (single isomer, unassigned) [Example 5-259, 2-((3R,4R or 3S,4S)-4-(3-((2-(tert-butyl)-1-oxoisoindolin-5-yl)amino)-4-oxo-4,5-dihydro-1H-pyrazolo[4,3-c]pyridin-1-yl)-3-fluorotetrahydro-2H-pyran-4-yl)acetonitrile] | 0.04 nM
7 | CN(C)S(=O)(=O)c1ccc(Nc2nn(C3(CC#N)CCN(C(=O)OC4CCOCC4)CC3)c3cc[nH]c(=O)c23)cc1 [Example 11-7, tetrahydro-2H-pyran-4-yl 4-(cyanomethyl)-4-(3-((4-(N,N-dimethylsulfamoyl)phenyl)amino)-4-oxo-4,5-dihydro-1H-pyrazolo[4,3-c]pyridin-1-yl)piperidine-1-carboxylate] | 0.18 nM
8 | CCC(=O)N1CCC(CC#N)(n2nc(Nc3ccc(S(=O)(=O)N(C)C)cc3)c3c(=O)[nH]ccc32)CC1 [Example 9-1, 4-({1-[4-(cyanomethyl)-1-propanoylpiperidin-4-yl]-4-oxo-4,5-dihydro-1H-pyrazolo[4,3-c]pyridin-3-yl}amino)-N,N-dimethylbenzenesulfonamide] | 0.11 nM
9 | CN(C)S(=O)(=O)c1ccc(Nc2nn(C3(CC#N)CCN(C(=O)Cc4ccc(C(F)(F)F)cc4)CC3)c3cc[nH]c(=O)c23)cc1 [Example 9-16, 4-({1-[4-(cyanomethyl)-1-{[4-(trifluoromethyl)phenyl]acetyl}piperidin-4-yl]-4-oxo-4,5-dihydro-1H-pyrazolo[4,3-c]pyridin-3-yl}amino)-N,N-dimethylbenzenesulfonamide] | 1.05 nM
10 | N#CC[C@@]1(n2nc(Nc3ccc4c(c3)CN(C3CCNCC3)S4(=O)=O)c3c(=O)[nH]ccc32)CCOC[C@@H]1F (single isomer, unassigned) [Example 5-272, 2-((3R,4R or 3S,4S)-4-(3-((1,1-dioxido-2-(piperidin-4-yl)-2,3-dihydrobenzo [d]isothiazol-5-yl)amino)-4-oxo-4,5-dihydro-1H-pyrazolo[4,3-c]pyridin-1-yl)-3-fluorotetrahydro-2H-pyran-4-yl)acetonitrile] | 0.06 nM

Other lines, results leading:

Row | IC50 | Structure (SMILES)
11 | 0.12 nM | CC(C)S(=N)(=O)c1ccc(Nc2nn([C@]3(CC#N)CC[C@@H](C(=O)OC(C)(C)C)OC3)c3cc[nH]c(=O)c23)cc1 (single isomer, unassigned) [Example 5-231, (2S,5S)-tert-butyl 5-(cyanomethyl)-5-(4-oxo-3-((4-(propan-2-yl-(S or R)-sulfonimidoyl)phenyl)amino)-4,5-dihydro-1H-pyrazolo[4,3-c]pyridin-1-yl)tetrahydro-2H-pyran-2-carboxylate]
12 | 0.28 nM | Cc1cc(Nc2nn([C@]3(CC#N)CC[C@@H](C(=O)OC(C)(C)C)OC3)c3cc[nH]c(=O)c23)ccc1C(=O)N1CCSC(C)C1 (single isomer, unassigned) [Example 5-158, (2S,5S)-tert-butyl 5-(cyanomethyl)-5-(3-((3-methyl-4-((S or R)-2-methylthiomorpholine-4-carbonyl)phenyl)amino)-4-oxo-4,5-dihydro-1H-pyrazolo[4,3-c]pyridin-1-yl)tetrahydro-2H-pyran-2-carboxylate]
13 | 0.2 nM | C[C@@H]1CN(C(=O)OC(C)(C)C)CC[C@]1(CC#N)n1nc(Nc2ccc(S(C)(=O)=O)cc2)c2c(=O)[nH]ccc21 (racemic) [Example 5-11, tert-butyl (3S,4S and 3R,4R)-4-(cyanomethyl)-3-methyl-4-(3-{[4-(methylsulfonyl)phenyl]amino}-4-oxo-4,5-dihydro-1H-pyrazolo[4,3-c]pyridin-1-yl)piperidine-1-carboxylate]
14 | 0.22 nM | Cc1cc(Nc2nn([C@]3(CC#N)CC[C@@H](C(=O)OC(C)(C)C)OC3)c3cc[nH]c(=O)c23)ccc1C(=O)N1CCC(O)(C(F)(F)F)C1 (single isomer, unassigned) [Example 5-160, (2S,5S)-tert-butyl 5-(cyanomethyl)-5-(3-((4-((S or R)-3-hydroxy-3-(trifluoromethyl)pyrrolidine-1-carbonyl)-3-methylphenyl)amino)-4-oxo-4,5-dihydro-1H-pyrazolo[4,3-c]pyridin-1-yl)tetrahydro-2H-pyran-2-carboxylate]
15 | 1.28 nM | CC(C)(C)OC(=O)[C@@H]1CC[C@@](CC#N)(n2nc(Nc3ccc(C(O)(C(C)(C)C)C(F)(F)F)cc3)c3c(=O)[nH]ccc32)CO1 (single isomer, unassigned) [Example 5-166, (2S,5S)-tert-butyl 5-(cyanomethyl)-5-(4-oxo-3-((4-((S or R)-1,1,1-trifluoro-2-hydroxy-3,3-dimethylbutan-2-yl)phenyl)amino)-4,5-dihydro-1H-pyrazolo[4,3-c]pyridin-1-yl)tetrahydro-2H-pyran-2-carboxylate]
16 | 0.07 nM | CC(C)(C)OC(=O)[C@@H]1CC[C@@](CC#N)(n2nc(Nc3ccc(Cn4ccnn4)cc3)c3c(=O)[nH]ccc32)CO1 [Example 5-96, (2S,5S)-tert-butyl 5-(3-((4-((1H-1,2,3-triazol-1-yl)methyl)phenyl)amino)-4-oxo-4,5-dihydro-1H-pyrazolo[4,3-c]pyridin-1-yl)-5-(cyanomethyl) tetrahydro-2H-pyran-2-carboxylate]
17 | 0.23 nM | C[C@H]1CN(C(=O)OC(C)(C)C)CC[C@]1(CC#N)n1nc(Nc2ccc(S(C)(=O)=O)cc2)c2c(=O)[nH]ccc21 (racemic) [Example 5-10, tert-butyl (3R,4S and 3S,4R)-4-(cyanomethyl)-3-methyl-4-(3-{[4-(methylsulfonyl)phenyl]amino}-4-oxo-4,5-dihydro-1H-pyrazolo[4,3-c]pyridin-1-yl)piperidine-1-carboxylate]
18 | 0.29 nM | Cc1cc(Nc2nn([C@]3(CC#N)CC[C@@H](C(=O)OC(C)(C)C)OC3)c3cc[nH]c(=O)c23)ccc1C(=O)N1CCC(O)(C(F)(F)F)C1 (single isomer, unassigned) [Example 5-161, (2S,5S)-tert-butyl 5-(cyanomethyl)-5-(3-((4-((S or R)-3-hydroxy-3-(trifluoromethyl)pyrrolidine-1-carbonyl)-3-methylphenyl)amino)-4-oxo-4,5-dihydro-1H-pyrazolo[4,3-c]pyridin-1-yl)tetrahydro-2H-pyran-2-carboxylate]
19 | 0.15 nM | CC(C)(C)OC(=O)[C@@H]1CC[C@@](CC#N)(n2nc(Nc3ccc4nc(N5CCOCC5)ccc4c3)c3c(=O)[nH]ccc32)CO1 [Example 5-227, (2S,5S)-tert-butyl 5-(cyanomethyl)-5-(3-((2-morpholinoquinolin-6-yl)amino)-4-oxo-4,5-dihydro-1H-pyrazolo[4,3-c]pyridin-1-yl)tetrahydro-2H-pyran-2-carboxylate]
20 | 0.76 nM | CCOC(=O)C(C)(C)N(C)S(=O)(=O)c1ccc(Nc2nn(C3(CC#N)CCCC3)c3cc[nH]c(=O)c23)cc1 [Example 5-139, ethyl 2-(4-((1-(1-(cyanomethyl)cyclopentyl)-4-oxo-4,5-dihydro-1H-pyrazolo[4,3-c]pyridin-3-yl)amino)-N-methylphenylsulfonamido)-2-methylpropanoate]
21 | 0.5 nM | CC(C)NS(=O)(=O)c1ccc(Nc2nn(C3(CC#N)CCCC3)c3cc[nH]c(=O)c23)cc1 [Example 5-130, 4-((1-(1-(cyanomethyl)cyclopentyl)-4-oxo-4,5-dihydro-1H-pyrazolo[4,3-c]pyridin-3-yl)amino)-N-isopropylbenzene-sulfonamide]
